Laboratory results as given in patent US20110136751A1, “Use of Polyphenols in the Treatment of Cancer” (Green Molecular, priority 2009, published 2011).

Legend:
[1] = system: A-172; assay: IC50 on cell viability, Cell Counting Kit-8; assay type: cell-based; settings: Homo sapiens; code 12, A-172, Brain Gliblastoma; cell viability 120 h after administration
Description: (§1) A panel of 36 human cell lines were first tested in terms of population doubling time and growth curves to determine the conditions for further assays. The cells were also tested to determine the dose of radiation that produces 50% cell viability (D50). […] Cell viability was determined 120 h after the administration of the compounds using the Cell Counting Kit-8 (Dojindo Molecular Technologies, Inc, Rockville, Md.). In the experiments, 0.1% SDS and 1% DMSO were used as positive and negative controls, respectively. Final concentrations of the compounds used in the experiments are listed below in Table 5: […]

[2] = system: A-673; assay: IC50 on cell viability, Cell Counting Kit-8; assay type: cell-based; settings: Homo sapiens, A673; code 36, A-673, Muscle Rhabdomyosarcoma; cell viability 120 h after administration
Description: as §1

[3] = system: MEWO; assay: IC50 on cell viability, Cell Counting Kit-8; assay type: cell-based; settings: Homo sapiens; code 26, MEWO, Skin Melanoma; cell viability 120 h after administration
Description: as §1

[4] = system: MNNG-HOS; assay: IC50 on cell viability, Cell Counting Kit-8; assay type: cell-based; settings: Homo sapiens; code 29, MNNG-HOS, Bone Osteosarcoma; cell viability 120 h after administration
Description: as §1

[5] = system: SK-ES-1; assay: IC50 on cell viability, Cell Counting Kit-8; assay type: cell-based; settings: Homo sapiens, SK-ES1; code 30, SK-ES-1, Bone Osteosarcoma; cell viability 120 h after administration
Description: as §1

[6] = system: U-38 MG; assay: IC50 on cell viability, Cell Counting Kit-8; assay type: cell-based; settings: Homo sapiens; code 13, U-38 MG, Brain Gliblastoma/astrocitoma; cell viability 120 h after administration
Description: as §1

[7] = system: HT-29 xenografts; assay: HT-29 xenograft growth; assay type: in vivo, nu/nu nude mice; settings: i.v., 40 mg of t-PTER or QUER/kg×day, single PF
Description: Tumor growth was measured during a 30-day period. Tumor volume, one week after inoculation and before PF administration, was of 56+15 mm3. A. […] B. Growth profile of control ([…]) and t-PTER- and QUER (∘) (20 mg of each PF/kg)-treated HT-29-bearing mice. Data are means±S.D. of 18-20 mice per group. The significant test refers, for all groups, to the comparison between PTER and/or QUER and controls (treated with physiological saline) (*P<0.01). For HT-29 cancer cell xenograft experiments, female nu/nu nude mice (ages 6 to 8 weeks; […] Tumor volume was calculated based on two dimensions, measured using calipers, and was expressed in cubic millimeters according to the formula: […] For histological analysis the surgical and xenograft tissue samples were fixed in 4% formaldehyde, paraffin embedded, and stained with hematoxilin & eosin and safran. […] This study was conducted in compliance with international laws and policies (EEC Directive 86/609, OJ L 358. 1, Dec. 12, 1987; and NIH Guide for the Care and Use of Laboratory Animals, NIH Publ. No. 85-23, 1985). X rays were administered using a […] SL75 linear accelerator from Philips. For this purpose each mouse was anesthetized with nembutal (50 mg/kg i.p.), and fixed on a Perspex platform.

[8] = system: Human melanoma (A375), breast cancer (MCF7), lung cancer (A549), and colon cancer (HT29) cell lines; assay: Cell inhibition study (cell counting); assay type: cell-based; settings: for cell number (relative proliferation index): 0-100 μM, FIGS. 8A through 8D; for IC50: Homo sapiens, all cell lines (A375, MCF7, A549, HT29)
Description: (§2) Cancer cells (0.2×10^6 cells/well) were seeded in six well-plates and, 24 h later, were treated with PTER or RES (0-100 mM) (ethanol as solvent vehicle was at a conc. of 0.3%). Cell growth was analyzed using the Countess® Automated Cell Counter (Invitrogen). Results were expressed as relative proliferation index±SD (n=4) where control is 100.
(§3) The aim of this study was to determine whether pterostilbene causes cytotoxicity in human tumors at concentrations that are reliable under in vivo conditions; and, to identify which death-related molecular mechanisms may be activated by the compound. Human melanoma (A375), breast cancer (MCF7), lung cancer (A549), and colon cancer (HT29) cell lines were used in this set of experiments. Pterostilbene and resveratrol were used in a μM range, between 10 μM (below the IC50 for all cell lines) and 200 μM (an unachievable in vivo concentration). Cell cycle and apoptosis induction were determined by flow cytometry.
as §2, with “Cells from the cancer lines” for “Cancer cells”, “pterostilbene” for “PTER”, “resveratrol” for “RES”, “μM)” for “mM)”

[9] = system: caspase 3; assay: Caspase-3 activity (Apo-ONE Homogeneous Caspase-3 Assay); assay type: cell-based, human; settings: within a 24 h-period
Description: Aspase-3 activity was measured with Apo-ONE® Homogeneous Caspase-3 Assay (Promega). The assay was configured for 96 well plates (5000 cells/well). Cells were plated for 24 h. Capase-3/7 activities were evaluated 24 h after polyphenols addition. Fluorescence (a.u.) was expressed as relative index where control is 1. Results are expressed as relative proliferation index±SD (n=3).
The effects of pterostilbene and resveratrol on cell cycle were tested. […] Both DNA synthesis and tubulin polymerization were seriously affected.

[10] = system: Human melanoma (A375), breast cancer (MCF7), lung cancer (A549), and colon cancer (HT29) cell lines; assay: Necrosis induction (LDH released to the extracellular medium); assay type: cell-based; settings: with increasing concentration; FIG. 10
Description: Necrosis induction was evaluated by measuring lactate dehydrogenase (LDH) activity released to the extracellular medium. Cells were exposed to polyphenols for 24-72 h. Results are expressed as relative LDH activity±SD (n=3) where control is 100.
The tumor cell death induced by pterostilbene appears to be partially independent of caspase activity.

[11] = system: Human melanoma (A375), breast cancer (MCF7), lung cancer (A549), and colon cancer (HT29) cell lines; assay: Apoptosis induction (flow cytometry); assay type: cell-based; settings: with increasing concentration
Description: as §3, with “Pterostilbene and resveratrol were used in a μM range, between 10 μM (below the IC50 for all cell lines) and 200 μM (an unachievable in vivo concentration).” left out, “cytometry. […] The tumor cell death induced by pterostilbene appears to be partially independent of caspase activity.” for “cytometry.”

[12] = cited from earlier work

IC50 [5]	IC50 [8]	caspase 3 activation [9]	SMILES	IC50 [1]	IC50 [2]	IC50 [3]	IC50 [4]	IC50 [6]	CRC growth inhibition compared with the 20 mg/kg×day dose [7]	cell number (relative proliferation index) [8]	Necrosis (LDH activity released to the extracellular medium) [10]	apoptosis [11]	half-life in circulating blood ([12]; after i.v. administration of 20 mg/kg to e.g. rabbits)	inhibitory effect on human tumor cell growth versus resveratrol [8]	half-life in blood ([12]; rabbit, in vivo)
8.2 µM			O=c1c(O)c(-c2ccc(O)c(O)c2)oc2cc(O)cc(O)c12 [QUER, quercetin]	10 µM	4.09 µM	8.59 µM	9.91 µM	4.83 µM	not significantly different						
27.2 µM	> 10 µM	no caspase 3 activation was detected	Oc1ccc(/C=C/c2cc(O)cc(O)c2)cc1 [RI, trans-3,5,4′-trihydroxystilbene, reference compound]	47.6 µM	6.73 µM	17.1 µM	11.7 µM	6.29 µM		reduced cell number in a concentration- and time-dependent manner	progressively activated	progressively activated	~14.4 min		
42.7 µM	> 10 µM	no caspase 3 activation was detected	COc1cc(/C=C/c2ccc(O)cc2)cc(OC)c1 [t-PTER, trans-3,5-dimethoxy-4′-hydroxystilbene]	29.7 µM	5.8 µM	39 µM	12.3 µM	29.7 µM	not significantly different	reduced cell number in a concentration- and time-dependent manner	progressively activated	progressively activated		stronger inhibitory effect	~77.9 min
